Assay results: patent US9820951B2, “Pulmonary disease treatment and diagnosis based on Arhgef1” (NATIONAL JEWISH HEALTH, A NON-PROFIT ORGANIZATION, priority 2011, dated 2017)

Key:
Mmp9 [1] = test: MMP9 activity by gelatin zymography in conditioned media of mouse peritoneal macrophages cultured on fibronectin; type: cell-based; conditions: for maximal inhibition of fibronectin-induced MMP9 production/activity: both wild type and Arhgef1-deficient macrophages, aspirin up to 20 mM, L-161,982, PTA2 1.56 or 6.25 μM, L-655,240 28 μM
Method: (§1) FIG. 5. TP-induced MMP9 production is only partially dependent on COX activity. A) PEMs were cultured on fibronectin for 24 hours with 5% FCS, washed then treated with different concentration of aspirin or 1.6 μM PTXA2 at for an additional 24 hours without FCS. MMP9 activity was determined by zymography from supernatants of wild type (open) or Arhgef1−/− (filled) macrophages. Activity was normalized to activity generated from cells cultured on fibronectin without treatment. B) MMP9 activity in conditioned media from peripheral blood monocytes cultured as described in panel A. Data represents mean±SE (n=3 independent donors).
FIG. 6. The antioxidant mimetic MnTE-2PyP reduces MMP9 activity in macrophages. PEMs were cultured on fibronectin for 24 hours with 5% FCS, washed then treated with MnTE-2PyP at the indicated concentrations for an additional 24 hours without FCS. MMP9 activity was determined by zymography from supernatants of wild type (open) or Arhgef1−/− (filled) macrophages. Activity was normalized to activity generated from cells cultured on fibronectin without treatment.
FIG. 11. Cyclooxygenase activity but not EP4 receptor signaling is required for MMP9 production by murine macrophages cultured on fibronectin. A, representative MMP9 gelatin zymograms of conditioned media from peritoneal macrophages cultured on either plastic (ctl) or FN and treated with increasing concentrations of aspirin (1.25, 5.0, and 20 mM, respectively). Wild type (+/+) and Arhgef1^−/− (−/−) samples from separate zymograms are shown. Molecular weight standards and respective enzymatic activities of MMP9 and MMP2 are shown. B, quantitation of MMP9 activity as determined by densitometric analysis of zymograms in A. MMP 9 activity is shown in arbitrary units and represents n=6 for both wild type (open bars) and Arhgef1^−/− (black bars) samples. The results are compiled from two independent experiments. The data represent the means±S.E. *, p<0.05 Student's two-tailed t test compared with conditioned media from cells cultured on plastic. #, p<0.05 Student's two-tailed test comparing conditioned media from wild type cells to Arhgef1^−/− cells cultured under identical conditions. $, p<0.05 Student's two-tailed t test compared with conditioned media from cells cultured on fibronectin. C, quantitation of MMP9 activity in conditioned media from macrophages cultured on fibronectin in the presence of the EP4 antagonist L161,982 (10 μM). MMP9 activity was normalized to fibronectin response for each genotype. The results are compiled from two independent experiments with wild type (open bars, n=5) and Arhgef1^−/− (black bars, n=5) samples. The data represent the means±S.E. *, p<0.05 Student's two-tailed t test compared with conditioned media from cells cultured on plastic. #, p<0.05 Student's two-tailed t test compared with conditioned media from cells cultured on fibronectin.
FIG. 12. Thromboxane receptor signaling is necessary for fibronectin-induced MMP9 production by macrophages and is attenuated by Arhgef1. A, representative gelatin zymograms of conditioned media from macrophages cultured on plastic (ctl) or FN and treated with 1.56 or 6.25 μM of the thromboxane receptor antagonist PTA2. Wild type (+/+) and Arhgef1^−/− (−/−) samples from separate zymograms are shown. B, quantitation of MMP9 activity as determined by densitometric analysis of zymograms in A. The results are representative of two independent experiments. C, representative zymograms from conditioned media from macrophages cultured on plastic or fibronectin and treated with 28 μM of the thromboxane receptor antagonist L-655,240. D, quantitation of MMP9 activity as determined by densitometric analysis of zymograms in C. The results are compiled from two independent experiments with n=4 for both wild type (open bars) and Arhgef1^−/− (black bars) samples. […]

MMP9 [2] = test: MMP9 activity by zymography in conditioned media of human peripheral blood monocytes cultured on fibronectin; type: cell-based
Method: as §1
Tissue-culture 96-well plates (Costar high binding catalogue number 3590) were coated with 10 μg/ml of murine fibronectin (Molecular Innovations, Nori, Minn.; catalogue number MFBN) or human fibronectin (Molecular Innovations; catalogue number HFBN) in DPBS without Ca^2+ or Mg^2+ (Mediatech, Inc., Manassas, Va.) for 2 h at room temperature. […] PGE2 and TXB2 were measured in conditioned medium by ELISA according to the manufacturer's instructions (ElisaTech, Aurora, Colo.). […]
Peripheral blood monocytes were isolated from whole blood of healthy volunteers using protocols approved by the National Jewish Health Human Subjects Institutional Review Board. […] This procedure consistently yields monocyte purities of >80% as assessed by flow cytometry. […]

CC(=O)Oc1ccccc1C(=O)O [aspirin]
maximal inhibition of fibronectin-induced MMP9 production/activity (Mmp9 [1]): 70-75%
reduction of MMP9 activity (Mmp9 [1]; mouse peritoneal macrophages on fibronectin, highest aspirin concentration 5 mM, 24 h): 40-50%
reduction of MMP9 activity (MMP9 [2]; human monocytes on fibronectin, highest aspirin concentration 5 mM, 24 h): 40-50%

CCCCC[C@@H](O)/C=C/[C@H]1C[C@H]2C[C@@H]([C@@H]1C/C=C\CCCC(=O)O)C2(C)C (relative stereo) [PTXA2, (18-(1alpha,2beta(Z),3alpha(1E,3S*),5alpha))-7-(3-(3-Hydroxy-1-octenyl)-6,6-dimethylbicyclo(3.1.1)hept-2-yl)-5-heptenoic acid]
maximal inhibition of fibronectin-induced MMP9 production/activity (Mmp9 [1]): 80-85%
fibronectin-mediated MMP9 activity (effect in words) (Mmp9 [1]; mouse macrophages, wild type and Arhgef1−/−, 1.6 μM PTXA2, 28 μM L-655,240): virtually ablated fibronectin-mediated MMP9 activity
fibronectin-mediated MMP9 activity (effect in words) (MMP9 [2]; human peripheral blood monocytes, 1.6 μM PTXA2): virtually ablated fibronectin-mediated MMP9 activity
